Laboratory results: US7462600B2, “Macrolides” (Pfizer Inc, priority 2004, dated 2008)
Converted amounts (≈) assume the structure as drawn. Read-outs that look alike come from different tables or passages of the source.

Key:
Format in all cases: cell-based
[1] = system: Streptococcus pneumoniae 1095; conditions: microtiter broth dilution
Description: (§1) The assay described herein includes a panel of bacterial strains assembled to include a variety of target pathogenic species, including representatives of macrolide resistance mechanisms that have been characterized. In many cases, both the macrolide-susceptible parent strain and the macrolide-resistant strain derived from it are available to provide a more accurate assessment of the compound's ability to circumvent the resistance mechanism. The assay is performed in microtiter trays and interpreted according to Performance Standards for Antimicrobial Susceptibility Testing; 14th Informational Supplement (M100-S14), published by The National Committee for Clinical Laboratory Standards (NCCLS) guidelines; the MIC is used to compare strains. Compounds are initially dissolved in DMSO as 40 mg/ml stock solutions.

[2] = system: Streptococcus pneumoniae 1175; conditions: microtiter broth dilution
Description: as §1

[3] = system: Streptococcus pyogenes 1079; experiment: MIC, microtiter broth dilution (NCCLS M100-S14), S. pyogenes 1079 (ermB)
Description: as §1

[4] = system: Streptococcus pneumoniae 1016; experiment: MIC, microtiter broth dilution (NCCLS M100-S14), S. pneumoniae 1016 (susceptible)
Description: as §1

[5] = system: Haemophilus influenzae 1218; experiment: MIC, microtiter broth dilution (NCCLS M100-S14), H. influenzae 1218 (susceptible)
Description: as §1

[6] = S. pneumoniae 1016 (susceptible)
[7] = H. influenzae 1218 (susceptible)

| SMILES | MIC S. pneumo. 1095 ([1]; S. pneumoniae 1095 (ermB)) | MIC S. pneumo. 1175 ([2]; S. pneumoniae 1175 (mefA)) | MIC S. pyogenes 1079 ([3]; S. pyogenes 1079 (ermB)) | MIC S. pneumo. 1016 [4, 6] | MIC H. influenzae 1218 [5, 7] | MIC S. pneumo. 1095 ([1]; Streptococcus pneumoniae 1095) | MIC S. pneumo. 1175 ([2]; Streptococcus pneumoniae 1175) | MIC S. pyogenes 1079 ([3]; Streptococcus pyogenes 1079) | MIC S. pneumo. 1016 ([4]; Streptococcus pneumoniae 1016) | MIC H. influenzae 1218 ([5]; Haemophilus influenzae 1218) |
| --- | --- | --- | --- | --- | --- | --- | --- | --- | --- | --- |
| CC[C@H]1OC(=O)[C@H](C)C(=O)[C@H](C)[C@@H](O[C@@H]2O[C@H](C)C[C@H](N(C)C)[C@H]2O)[C@](C)(OC)C[C@@H](C)C(=O)[C@H](C)[C@H]2N(CC3(C)CN(C(=O)c4cnc5ccccc5c4)C3)C(=O)O[C@]12C.O=CO [6.12] | 0.25 µg/mL | 0.12 µg/mL | >64.00 µg/mL | <0.06 µg/mL | – | – | – | – | – | – |
| CC[C@H]1OC(=O)[C@H](C)C(=O)[C@H](C)[C@@H](O[C@@H]2O[C@H](C)C[C@H](N(C)C)[C@H]2O)[C@](C)(OC)C[C@@H](C)C(=O)[C@H](C)[C@H]2N(CC3(C)CN(C(=O)c4ccnc5ccccc45)C3)C(=O)O[C@]12C.O=CO [6.13] | 8 µg/mL | <0.06 µg/mL | >64.00 µg/mL | <0.06 µg/mL | – | – | – | – | – | – |
| CC[C@H]1OC(=O)[C@H](C)C(=O)[C@H](C)[C@@H](O[C@@H]2O[C@H](C)C[C@H](N(C)C)[C@H]2O)[C@](C)(OC)C[C@@H](C)C(=O)[C@H](C)[C@H]2N(CC3(C)CN(C(=O)c4cccc5ncccc45)C3)C(=O)O[C@]12C.O=CO [6.14] | 8 µg/mL | 0.25 µg/mL | >64.00 µg/mL | <0.06 µg/mL | – | – | – | – | – | – |
| CC[C@H]1OC(=O)[C@H](C)C(=O)[C@H](C)[C@@H](O[C@@H]2O[C@H](C)C[C@H](N(C)C)[C@H]2O)[C@](C)(OC)C[C@@H](C)C(=O)[C@H](C)[C@H]2N(CC3(C)CN(C(=O)c4ccc5ncccc5c4)C3)C(=O)O[C@]12C.O=CO [6.15] | 8 µg/mL | 2 µg/mL | >64.00 µg/mL | <0.06 µg/mL | – | – | – | – | – | – |
| CC[C@H]1OC(=O)[C@H](C)C(=O)[C@H](C)[C@@H](O[C@@H]2O[C@H](C)C[C@H](N(C)C)[C@H]2O)[C@](C)(OC)C[C@@H](C)C(=O)[C@H](C)[C@H]2N(CC3(C)CN(C(=O)c4ccc5cccnc5c4)C3)C(=O)O[C@]12C.O=CO [6.16] | 0.12 µg/mL | 0.12 µg/mL | >64.00 µg/mL | <0.06 µg/mL | – | – | – | – | – | – |
| CC[C@H]1OC(=O)[C@H](C)C(=O)[C@H](C)[C@@H](O[C@@H]2O[C@H](C)C[C@H](N(C)C)[C@H]2O)[C@](C)(OC)C[C@@H](C)C(=O)[C@H](C)[C@H]2N(CC3(C)CN(C(=O)c4cccc5cccnc45)C3)C(=O)O[C@]12C.O=CO [6.17] | >64.00 µg/mL | 0.12 µg/mL | >64.00 µg/mL | <0.06 µg/mL | – | – | – | – | – | – |
| CC[C@H]1OC(=O)[C@H](C)C(=O)[C@H](C)[C@@H](O[C@@H]2O[C@H](C)C[C@H](N(C)C)[C@H]2O)[C@](C)(OC)C[C@@H](C)C(=O)[C@H](C)[C@H]2N(CC3(C)CN(C(=O)c4nc5ccccc5[nH]4)C3)C(=O)O[C@]12C.O=CO [6.18] | 0.25 µg/mL | 0.25 µg/mL | >64.00 µg/mL | <0.06 µg/mL | – | – | – | – | – | – |
| CC[C@H]1OC(=O)[C@H](C)C(=O)[C@H](C)[C@@H](O[C@@H]2O[C@H](C)C[C@H](N(C)C)[C@H]2O)[C@](C)(OC)C[C@@H](C)C(=O)[C@H](C)[C@H]2N(CC3(C)CN(C(=O)c4ccc5ncsc5c4)C3)C(=O)O[C@]12C.O=CO [6.19] | 1 µg/mL | 0.5 µg/mL | >64.00 µg/mL | <0.06 µg/mL | – | – | – | – | – | – |
| CC[C@H]1OC(=O)[C@H](C)C(=O)[C@H](C)[C@@H](O[C@@H]2O[C@H](C)C[C@H](N(C)C)[C@H]2O)[C@](C)(OC)C[C@@H](C)C(=O)[C@H](C)[C@H]2N(CC3(C)CN(C(=O)c4cncc5ccccc45)C3)C(=O)O[C@]12C.O=CO [6.20] | 64 µg/mL | 0.5 µg/mL | >64.00 µg/mL | <0.06 µg/mL | – | – | – | – | – | – |
| CC[C@H]1OC(=O)[C@H](C)C(=O)[C@H](C)[C@@H](O[C@@H]2O[C@H](C)C[C@H](N(C)C)[C@H]2O)[C@](C)(OC)C[C@@H](C)C(=O)[C@H](C)[C@H]2N(CC3(C)CN(C(=O)c4cccc(-n5cccn5)n4)C3)C(=O)O[C@]12C.O=CO [6.21] | 16 µg/mL | 0.5 µg/mL | >64.00 µg/mL | <0.06 µg/mL | – | – | – | – | – | – |
| CC[C@H]1OC(=O)[C@H](C)C(=O)[C@H](C)[C@@H](O[C@@H]2O[C@H](C)C[C@H](N(C)C)[C@H]2O)[C@](C)(OC)C[C@@H](C)C(=O)[C@H](C)[C@H]2N(CC3(C)CN(C(=O)c4cc5cccnc5[nH]4)C3)C(=O)O[C@]12C [6.23] | <0.06 µg/mL | 0.25 µg/mL (≈ 0.298 µM) | 64 µg/mL (≈ 76.2 µM) | <0.06 µg/mL | – | – | – | – | – | – |
| CCC1OC(=O)C(C)C(=O)C(C)C(OC2OC(C)CC(N(C)C)C2O)C(C)(OC)CC(C)C(=O)C(C)C2N(CC3CCN(Cc4cccc5cccnc45)C3)C(=O)OC12C (stereo not shown) [11.12] | <0.06 µg/mL | <0.06 µg/mL | – | <0.06 µg/mL | <0.06 µg/mL | – | – | – | – | – |
| CCC1OC(=O)C(C)C(=O)C(C)C(OC2OC(C)CC(N(C)C)C2O)C(C)(OC)CC(C)C(=O)C(C)C2N(CC3CCN(Cc4cccc5cnccc45)C3)C(=O)OC12C (stereo not shown) [11.13] | <0.06 µg/mL | <0.06 µg/mL | – | <0.06 µg/mL | 0.25 µg/mL (≈ 0.299 µM) | – | – | – | – | – |
| CCC1OC(=O)C(C)C(=O)C(C)C(OC2OC(C)CC(N(C)C)C2O)C(C)(OC)CC(C)C(=O)C(C)C2N(C3CN(Cc4ccc5ncccc5c4)C3)C(=O)OC12C (stereo not shown) [Example 1.07, (quinolin-6-yl)methyl] | – | – | – | – | – | <0.06 µg/mL | 0.25 µg/mL (≈ 0.309 µM) | 16 µg/mL (≈ 19.8 µM) | <0.06 µg/mL | – |
| CCC1OC(=O)C(C)C(=O)C(C)C(OC2OC(C)CC(N(C)C)C2O)C(C)(OC)CC(C)C(=O)C(C)C2N(C3CN(Cc4ccc(F)c(F)c4)C3)C(=O)OC12C (stereo not shown) [Example 1.08, 3,4-difluorobenzyl] | – | – | – | – | – | 0.5 µg/mL (≈ 0.63 µM) | 0.25 µg/mL (≈ 0.315 µM) | >64.00 µg/mL | <0.06 µg/mL | – |
| CCC1OC(=O)C(C)C(=O)C(C)C(OC2OC(C)CC(N(C)C)C2O)C(C)(OC)CC(C)C(=O)C(C)C2N(C3CN(Cc4nc5ccccc5[nH]4)C3)C(=O)OC12C (stereo not shown) [Example 1.09, (1H-benzo[d]imidazo-2-yl)methyl] | – | – | – | – | – | <0.06 µg/mL | 0.25 µg/mL (≈ 0.313 µM) | >64.00 µg/mL | <0.06 µg/mL | – |
| CCC1OC(=O)C(C)C(=O)C(C)C(OC2OC(C)CC(N(C)C)C2O)C(C)(OC)CC(C)C(=O)C(C)C2N(C3CN(Cc4ccn(-c5ccccn5)n4)C3)C(=O)OC12C (stereo not shown) [Example 1.10] | – | – | – | – | – | <0.06 µg/mL | 0.12 µg/mL (≈ 0.145 µM) | >64.00 µg/mL | <0.06 µg/mL | – |
| CCC1OC(=O)C(C)C(=O)C(C)C(OC2OC(C)CC(N(C)C)C2O)C(C)(OC)CC(C)C(=O)C(C)C2N(C3CN(C(COC)c4ccnc5ncccc45)C3)C(=O)OC12C (stereo not drawn) [Example 1.81, 3-descladinosyl-11,12-dideoxy-4-O-methyl-3-oxo-12,11-(oxycarbonyl-(1-(2-(methoxy)-1R-(1,8-napthyridin-4-yl)-ethyl)-azetidin-3-yl)-imino)-erythromycin A] | – | – | – | – | – | 0.5 µg/mL (≈ 0.585 µM) | <0.063 µg/mL | 4 µg/mL (≈ 4.68 µM) | <0.063 µg/mL | – |
| CCC1OC(=O)C(C)C(=O)C(C)C(OC2OC(C)CC(N(C)C)C2O)C(C)(OC)CC(C)C(=O)C(C)C2N(C3CN(Cc4c(F)cccc4OC)C3)C(=O)OC12C (stereo not shown) [Example 1.85, 3-descladinosyl-11,12-dideoxy-6-O-methyl-3-oxo-12,11-(oxycarbonyl-(1-(1-fluoro-3-methoxybenzene-2-methyl)-azetidin-3-yl)-imino)-erythromycin A] | – | – | – | – | – | – | – | 16 µg/mL (≈ 19.9 µM) | <0.063 µg/mL | 2 µg/mL (≈ 2.48 µM) |
| CCC1OC(=O)C(C)C(=O)C(C)C(OC2OC(C)CC(N(C)C)C2O)C(C)(OC)CC(C)C(=O)C(C)C2N(C3CN(Cc4c(F)cccc4F)C3)C(=O)OC12C (stereo not shown) [Example 1.87, 3-descladinosyl-11,12-dideoxy-6-O-methyl-3-oxo-12,11-(oxycarbonyl-(1-(1,3-difluorobenzene-2-methyl)-azetidin-3-yl)-imino)erythromycin A] | – | – | – | – | – | – | – | 8 µg/mL (≈ 10.1 µM) | <0.063 µg/mL | 0.5 µg/mL (≈ 0.63 µM) |
| CCC1OC(=O)C(C)C(=O)C(C)C(OC2OC(C)CC(N(C)C)C2O)C(C)(OC)CC(C)C(=O)C(C)C2N(CC3CN(C(=O)c4cccc5cccnc45)C3)C(=O)OC12C (stereo not shown) [Example 4.34, 3-descladinosyl-11,12-dideoxy-6-O-methyl-3-oxo-12,11-(oxycarbonyl-((1-(quinoline-8-carbonyl)-azetidin-3-yl)-methyl)-imino)-erythromycin A] | – | – | – | – | – | 1 µg/mL (≈ 1.19 µM) | 1 µg/mL (≈ 1.19 µM) | – | <0.06 µg/mL | 0.25 µg/mL (≈ 0.299 µM) |
